Measurements taken from the supplement of paper PMC10307832.

Columns and labels:
Experiment in all cases: relative viability (nuclei count vs DMSO), 5 days (fraction); higher = more cells survive
NCI-H647 = tested on: NCI-H647
How it was run: (§1)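 Cells from lung cancer lines were seeded into 1536-well plates and, one day later, dosed by pin tool. Treatments were either a single drug or a fixed dose of an anchor drug with five library-drug doses (not always all listed) in √10 steps. After 5 days, nuclei were stained in a one-step fixation (final 0.05% Triton X-100, 1% formaldehyde, 1 ug/ml Hoechst) and counted on 4× images, and relative viability is the treated-to-vehicle nuclei ratio, as the median of duplicate plates.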

NCI-H358 = tested on: NCI-H358
How it was run: as §1

NCI-H1792 = tested on: NCI-H1792
How it was run: as §1

ABC-1 = tested on: ABC-1
How it was run: as §1

NCI-H1975 = tested on: NCI-H1975
How it was run: as §1

NCI-H1651 = tested on: NCI-H1651
How it was run: as §1

HCC-15 = tested on: HCC-15
How it was run: as §1

COR-L 105 = tested on: COR-L 105
How it was run: as §1

NCI-H2087 = tested on: NCI-H2087
How it was run: as §1

NCI-H661 = tested on: NCI-H661
How it was run: as §1

UMC-11 = tested on: UMC-11
How it was run: as §1

LCLC-103H = tested on: LCLC-103H
How it was run: as §1

201T = tested on: 201T
How it was run: as §1

COR-L23 = tested on: COR-L23
How it was run: as §1

HCC-827 = tested on: HCC-827
How it was run: as §1

EKVX = tested on: EKVX
How it was run: as §1

EPLC-272H = tested on: EPLC-272H
How it was run: as §1

HCC-44 = tested on: HCC-44
How it was run: as §1

NCI-H1650 = tested on: NCI-H1650
How it was run: as §1

NCI-H727 = tested on: NCI-H727
How it was run: as §1

NCI-H520 = tested on: NCI-H520
How it was run: as §1

H3255 = tested on: H3255
How it was run: as §1

NCI-H1437 = tested on: NCI-H1437
How it was run: as §1

Compound `O=C(O)CCCCC(CCSCc1ccccc1)SCc1ccccc1` (centres undefined) [CPI-613] + Nc1ncn([C@H]2C[C@H](O)[C@@H](CO)O2)c(=O)n1 [Decitabine] (partner 2 µM) has a relative viability (NCI-H647; first compound 5 µM) of 0.345, a relative viability (NCI-H647; first compound 15.81 µM) of 0.462 and a relative viability (NCI-H647; first compound 50 µM) of 0.352. The relative viability (NCI-H647; first compound 158.11 µM) was 0.0749, the relative viability (NCI-H647; first compound 500 µM) was 0.0141 and the relative viability (NCI-H358; first compound 5 µM) was 0.235. The relative viability (NCI-H358; first compound 15.81 µM) was 0.2, the relative viability (NCI-H358; first compound 50 µM) was 0.219 and the relative viability (NCI-H358; first compound 158.11 µM) was 0.136. The relative viability (NCI-H358; first compound 500 µM) was 0.02, the relative viability (NCI-H1792; first compound 5 µM) was 0.571 and the relative viability (NCI-H1792; first compound 15.81 µM) was 0.449. For the same compound, the relative viability (NCI-H1792; first compound 50 µM) was 0.572, the relative viability (NCI-H1792; first compound 158.11 µM) was 0.253 and the relative viability (NCI-H1792; first compound 500 µM) was 0.0627. The relative viability (ABC-1; first compound 5 µM) was 1.18, the relative viability (ABC-1; first compound 15.81 µM) was 1.28 and the relative viability (ABC-1; first compound 50 µM) was 1.37. The relative viability (ABC-1; first compound 158.11 µM) was 0.698, the relative viability (ABC-1; first compound 500 µM) was 0.864 and the relative viability (NCI-H1975; first compound 5 µM) was 0.391. It also gave a relative viability (NCI-H1975; first compound 15.81 µM) of 0.413, a relative viability (NCI-H1975; first compound 50 µM) of 0.399 and a relative viability (NCI-H1975; first compound 158.11 µM) of 0.412. It also gave a relative viability (NCI-H1975; first compound 500 µM) of 0.0581, a relative viability (NCI-H1651; first compound 5 µM) of 0.625 and a relative viability (NCI-H1651; first compound 15.81 µM) of 0.504. It also gave a relative viability (NCI-H1651; first compound 50 µM) of 0.661, a relative viability (NCI-H1651; first compound 158.11 µM) of 0.523 and a relative viability (NCI-H1651; first compound 500 µM) of 0.562. For the same compound, the relative viability (HCC-15; first compound 5 µM) was 0.594, the relative viability (HCC-15; first compound 15.81 µM) was 0.592 and the relative viability (HCC-15; first compound 50 µM) was 0.547. It also gave a relative viability (HCC-15; first compound 158.11 µM) of 0.265, a relative viability (HCC-15; first compound 500 µM) of 0.0057 and a relative viability (COR-L 105; first compound 5 µM) of 0.68. For the same compound, the relative viability (COR-L 105; first compound 15.81 µM) was 0.671, the relative viability (COR-L 105; first compound 50 µM) was 0.668 and the relative viability (COR-L 105; first compound 158.11 µM) was 0.375. The relative viability (COR-L 105; first compound 500 µM) was 0.22, the relative viability (NCI-H2087; first compound 5 µM) was 0.261 and the relative viability (NCI-H2087; first compound 15.81 µM) was 0.218. The relative viability (NCI-H2087; first compound 50 µM) was 0.221, the relative viability (NCI-H2087; first compound 158.11 µM) was 0.115 and the relative viability (NCI-H2087; first compound 500 µM) was 0.0094. The relative viability (NCI-H661; first compound 5 µM) was 0.547, the relative viability (NCI-H661; first compound 15.81 µM) was 0.49 and the relative viability (NCI-H661; first compound 50 µM) was 0.577. For the same compound, the relative viability (NCI-H661; first compound 158.11 µM) was 0.381, the relative viability (NCI-H661; first compound 500 µM) was 0.0993 and the relative viability (UMC-11; first compound 5 µM) was 0.574. For the same compound, the relative viability (UMC-11; first compound 15.81 µM) was 0.573, the relative viability (UMC-11; first compound 50 µM) was 0.611 and the relative viability (UMC-11; first compound 158.11 µM) was 0.562. The relative viability (UMC-11; first compound 500 µM) was 0.544, the relative viability (LCLC-103H; first compound 5 µM) was 0.753 and the relative viability (LCLC-103H; first compound 15.81 µM) was 0.77. It also gave a relative viability (LCLC-103H; first compound 50 µM) of 0.714, a relative viability (LCLC-103H; first compound 158.11 µM) of 0.29 and a relative viability (LCLC-103H; first compound 500 µM) of 0.288. The relative viability (201T; first compound 5 µM) was 0.848, the relative viability (201T; first compound 15.81 µM) was 0.778 and the relative viability (201T; first compound 50 µM) was 0.841. The relative viability (201T; first compound 158.11 µM) was 0.194, the relative viability (201T; first compound 500 µM) was 0.211 and the relative viability (COR-L23; first compound 5 µM) was 0.494. The relative viability (COR-L23; first compound 15.81 µM) was 0.367, the relative viability (COR-L23; first compound 50 µM) was 0.469 and the relative viability (COR-L23; first compound 158.11 µM) was 0.229. For the same compound, the relative viability (COR-L23; first compound 500 µM) was 0.0175, the relative viability (HCC-827; first compound 5 µM) was 0.363 and the relative viability (HCC-827; first compound 15.81 µM) was 0.31. It also gave a relative viability (HCC-827; first compound 50 µM) of 0.359, a relative viability (HCC-827; first compound 158.11 µM) of 0.301 and a relative viability (HCC-827; first compound 500 µM) of 0.29. For the same compound, the relative viability (EKVX; first compound 5 µM) was 0.29, the relative viability (EKVX; first compound 15.81 µM) was 0.348 and the relative viability (EKVX; first compound 50 µM) was 0.423. For the same compound, the relative viability (EKVX; first compound 500 µM) was 0.397, the relative viability (EPLC-272H; first compound 5 µM) was 0.358 and the relative viability (EPLC-272H; first compound 15.81 µM) was 0.386. The relative viability (EPLC-272H; first compound 50 µM) was 0.429, the relative viability (EPLC-272H; first compound 158.11 µM) was 0.343 and the relative viability (EPLC-272H; first compound 500 µM) was 0.319. It also gave a relative viability (HCC-44; first compound 5 µM) of 0.877, a relative viability (HCC-44; first compound 15.81 µM) of 1.01 and a relative viability (HCC-44; first compound 50 µM) of 0.922. The relative viability (HCC-44; first compound 158.11 µM) was 0.828, the relative viability (HCC-44; first compound 500 µM) was 0.779 and the relative viability (NCI-H1650; first compound 5 µM) was 0.475. The relative viability (NCI-H1650; first compound 15.81 µM) was 0.443, the relative viability (NCI-H1650; first compound 50 µM) was 0.332 and the relative viability (NCI-H1650; first compound 158.11 µM) was 0.169. For the same compound, the relative viability (NCI-H1650; first compound 500 µM) was 0.0363, the relative viability (NCI-H727; first compound 5 µM) was 0.803 and the relative viability (NCI-H727; first compound 15.81 µM) was 0.786. The relative viability (NCI-H727; first compound 50 µM) was 0.894, the relative viability (NCI-H727; first compound 158.11 µM) was 0.776 and the relative viability (NCI-H727; first compound 500 µM) was 0.828. For the same compound, the relative viability (NCI-H520; first compound 5 µM) was 0.48, the relative viability (NCI-H520; first compound 15.81 µM) was 0.502 and the relative viability (NCI-H520; first compound 50 µM) was 0.428. For the same compound, the relative viability (NCI-H520; first compound 158.11 µM) was 0.271, the relative viability (NCI-H520; first compound 500 µM) was 0.149 and the relative viability (H3255; first compound 5 µM) was 0.626. The relative viability (H3255; first compound 15.81 µM) was 0.537, the relative viability (H3255; first compound 50 µM) was 0.665 and the relative viability (H3255; first compound 158.11 µM) was 0.566. The relative viability (H3255; first compound 500 µM) was 0.569, the relative viability (NCI-H1437; first compound 5 µM) was 0.491 and the relative viability (NCI-H1437; first compound 15.81 µM) was 0.542. It also gave a relative viability (NCI-H1437; first compound 50 µM) of 0.567, a relative viability (NCI-H1437; first compound 158.11 µM) of 0.207 and a relative viability (NCI-H1437; first compound 500 µM) of 0.0486.
